How the values were obtained:
[1] = tested on: PKC; conditions: cited from earlier work
[2] = in human; cited from earlier work
[3] = tested on: PKC; experiment: Inhibition of PKC activity; type: biochemical; conditions: relative to tamoxifen
[4] = Therapeutic index comparison; conditions: as compared to divalproex sodium

Question: For `CC/C(=C(\c1ccccc1)c1ccc(OCCN(C)C)cc1)c1ccccc1` [Tamoxifen], which PKC inhibition [1] is on record?
Answer: known to inhibit PKC

Question: What about the antimanic properties [2] of the same compound?
Answer: demonstrate antimanic properties in human

Question: Which “potency in inhibiting the PKC activity compared to tamoxifen” value [3] does the source give for `CC/C(=C(\c1ccc(O)cc1)c1ccc(OCCNC)cc1)c1ccccc1.O=C(O)CC(O)(CC(=O)O)C(=O)O` [Endoxifen, (Z)-1-(4-Hydroxyphenyl)-1-{4-[2-(monomethylamino)ethoxy]phenyl}-2-phenyl-1-butene citrate] here?
Answer: four-fold higher potency

Question: And the therapeutic index [4]?
Answer: broad therapeutic index

Source: US12245997B2, “Endoxifen for the treatment of bipolar I disorder” (priority 2020, dated 2025)
